Laboratory results taken from the supplement of paper PMC10307832.

How the values were obtained:
Assay in all cases: relative viability (nuclei count vs DMSO), 5 days (fraction); higher = more cells survive
Dactolisib + Olaparib = compound: Cn1c(=O)n(-c2ccc(C(C)(C)C#N)cc2)c2c3cc(-c4cnc5ccccc5c4)ccc3ncc21 [Dactolisib] + O=C(c1cc(Cc2n[nH]c(=O)c3ccccc23)ccc1F)N1CCN(C(=O)C2CC2)CC1 [Olaparib] (partner 8 µM)
In short: (§1)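 Relative viability equals treated-well nuclei counts divided by vehicle-well nuclei counts. Counts came from 4× images of lung cancer cell lines grown in 1536-well plates for 5 days after pin-tool dosing on the day after seeding. Dosing used one drug alone or a fixed anchor-drug dose plus five library-drug doses (not always all listed) in √10 steps, and values are medians of duplicate plates.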

Dactolisib + Palbociclib = compound: Cn1c(=O)n(-c2ccc(C(C)(C)C#N)cc2)c2c3cc(-c4cnc5ccccc5c4)ccc3ncc21 [Dactolisib] + CC(=O)c1c(C)c2cnc(Nc3ccc(N4CCNCC4)cn3)nc2n(C2CCCC2)c1=O [Palbociclib] (partner 0.5 µM)
In short: as §1

Dactolisib + Pictilisib = compound: Cn1c(=O)n(-c2ccc(C(C)(C)C#N)cc2)c2c3cc(-c4cnc5ccccc5c4)ccc3ncc21 [Dactolisib] + CS(=O)(=O)N1CCN(Cc2cc3nc(-c4cccc5[nH]ncc45)nc(N4CCOCC4)c3s2)CC1 [Pictilisib] (partner 1 µM)
In short: as §1

AZ505 + Palbociclib = compound: C1CCC(CC1)N(CCNCCC2=C3C(=C(C=C2)O)NC(=O)CO3)C(=O)CCNCCC4=CC(=C(C=C4)Cl)Cl [AZ505] + CC(=O)c1c(C)c2cnc(Nc3ccc(N4CCNCC4)cn3)nc2n(C2CCCC2)c1=O [Palbociclib] (partner 0.5 µM)
In short: as §1

Row | Cell Line | relative viability (Dactolisib + Olaparib; first compound 0.002 µM) | relative viability (Dactolisib + Olaparib; first compound 0.006325 µM) | relative viability (Dactolisib + Olaparib; first compound 0.02 µM) | relative viability (Dactolisib + Olaparib; first compound 0.06325 µM) | relative viability (Dactolisib + Olaparib; first compound 0.2 µM) | relative viability (Dactolisib + Palbociclib; first compound 0.002 µM) | relative viability (Dactolisib + Palbociclib; first compound 0.006325 µM) | relative viability (Dactolisib + Palbociclib; first compound 0.02 µM) | relative viability (Dactolisib + Palbociclib; first compound 0.06325 µM) | relative viability (Dactolisib + Palbociclib; first compound 0.2 µM) | relative viability (Dactolisib + Pictilisib; first compound 0.002 µM) | relative viability (Dactolisib + Pictilisib; first compound 0.006325 µM) | relative viability (Dactolisib + Pictilisib; first compound 0.02 µM) | relative viability (Dactolisib + Pictilisib; first compound 0.06325 µM) | relative viability (Dactolisib + Pictilisib; first compound 0.2 µM) | relative viability (AZ505 + Palbociclib; first compound 0.08 µM) | relative viability (AZ505 + Palbociclib; first compound 0.253 µM) | relative viability (AZ505 + Palbociclib; first compound 0.8 µM) | relative viability (AZ505 + Palbociclib; first compound 2.53 µM) | relative viability (AZ505 + Palbociclib; first compound 8 µM)
1 | 201T | 0.833 | 0.824 | 0.849 | 0.782 | 0.54 | 0.363 | 0.356 | 0.334 | 0.279 | 0.267 | 0.753 | 0.661 | 0.661 | 0.538 | 0.539 | 0.36 | 0.353 | 0.331 | 0.357 | 0.353
2 | A549 | 0.286 | 0.302 | 0.244 | 0.122 | 0.0942 | – | – | – | – | – | 0.544 | 0.356 | 0.3 | 0.145 | 0.112 | – | – | – | – | –
3 | A-427 | 0.877 | 0.675 | 0.707 | 0.619 | 0.495 | 0.547 | 0.529 | 0.498 | 0.428 | 0.401 | 0.648 | 0.674 | 0.718 | 0.49 | 0.498 | 0.529 | 0.526 | 0.499 | 0.512 | 0.527
4 | ABC-1 | 0.911 | 0.862 | 0.952 | 1.1 | 0.613 | 0.651 | 0.48 | 0.514 | 0.514 | 0.481 | 0.675 | 0.618 | 0.627 | 0.402 | 0.331 | 0.469 | – | 0.686 | 0.661 | 0.517
5 | BEN | 0.988 | 0.939 | 1.08 | 0.635 | 0.478 | 0.479 | 0.477 | 0.473 | 0.458 | 0.426 | 0.505 | 0.529 | 0.463 | 0.4 | 0.282 | 0.458 | 0.457 | 0.442 | 0.48 | 0.498
6 | CAL-12T | 0.822 | 0.662 | 0.496 | 0.286 | 0.271 | 0.526 | 0.396 | 0.256 | 0.172 | 0.133 | 0.407 | 0.408 | 0.358 | 0.251 | 0.254 | 0.324 | 0.437 | 0.372 | 0.477 | 0.618
7 | COR-L23 | 0.345 | 0.351 | 0.312 | 0.182 | 0.141 | 0.327 | 0.282 | 0.228 | 0.135 | 0.0957 | 0.925 | 0.656 | 0.546 | 0.177 | 0.151 | 0.259 | 0.253 | 0.264 | 0.284 | 0.281
8 | COR-L 105 | 0.629 | 0.744 | 0.76 | 0.592 | 0.367 | 0.393 | 0.375 | 0.432 | 0.392 | 0.31 | 0.423 | 0.364 | 0.377 | 0.332 | 0.305 | 0.399 | 0.405 | 0.369 | 0.406 | 0.399
9 | Calu-6 | 0.553 | 0.642 | 0.688 | 0.469 | 0.458 | – | – | – | – | – | 0.935 | 0.855 | 0.729 | 0.414 | 0.352 | – | – | – | – | –
10 | ChaGo-K-1 | 0.404 | 0.419 | 0.421 | 0.457 | 0.443 | 0.93 | 0.958 | 0.88 | 0.84 | 0.85 | 0.723 | 0.744 | 0.491 | 0.923 | 0.552 | 0.823 | 0.999 | 1 | 0.92 | 0.91
11 | EBC-1 | 0.809 | 0.645 | 0.648 | 0.19 | 0.176 | – | – | – | – | – | 0.332 | 0.279 | 0.279 | 0.204 | 0.171 | – | – | – | – | –
12 | EKVX | 0.661 | 0.867 | 0.861 | 0.469 | 0.331 | 0.431 | 0.386 | 0.324 | 0.241 | 0.197 | 0.402 | 0.433 | 0.37 | 0.293 | 0.241 | – | 0.365 | 0.378 | 0.372 | 0.389
13 | EMC-BAC-2 | 0.613 | 0.433 | 0.464 | 0.372 | 0.356 | 0.563 | 0.486 | 0.461 | 0.324 | 0.29 | 0.528 | 0.542 | 0.512 | 0.379 | 0.341 | 0.437 | 0.528 | 0.496 | 0.509 | 0.526
14 | EPLC-272H | 0.807 | 0.486 | 0.512 | 0.284 | 0.232 | 0.331 | 0.299 | 0.341 | 0.317 | 0.287 | 0.316 | 0.239 | 0.332 | 0.373 | 0.24 | 0.272 | 0.291 | 0.315 | 0.298 | 0.35
15 | H3255 | 0.559 | 0.56 | 0.499 | 0.475 | 0.399 | 0.332 | 0.305 | 0.321 | 0.313 | 0.314 | 0.513 | 0.44 | 0.473 | 0.35 | 0.339 | 0.292 | 0.31 | 0.301 | 0.298 | 0.302
16 | HARA | 1.23 | 0.858 | 0.898 | 0.684 | 0.24 | 0.304 | 0.233 | 0.301 | 0.233 | 0.188 | 0.469 | 0.34 | 0.366 | 0.277 | 0.236 | 0.198 | 0.266 | 0.185 | 0.218 | 0.224
17 | HCC-15 | 0.957 | 0.699 | 0.699 | 0.535 | 0.39 | 0.778 | 0.723 | 0.715 | 0.471 | 0.28 | 0.762 | 0.746 | 0.707 | 0.392 | 0.343 | 0.78 | 0.714 | 0.686 | 0.847 | 0.739
